From US20020028469A1, “Method of defining genus of chemical compound and method of designing molecules” (priority 1997, published 2002)

How the values were obtained:
PDEIV = PDEIV inhibition (IC50); type: biochemical; settings: PDEIV inhibitory activity
[1] = Solubility in aqueous solution, noted during coupling; type: physicochemical; settings: methanol used as solvent instead
Procedure: 1: 6 mg Compound C was dissolved in 2 ml methanol in 50 ml centrifuge tube (methanol was used because Compound C is insoluble in aqueous solution).

Row | SMILES | IC50 (PDEIV) [nM] | solubility in aqueous solution [1]
1 | CCNc1ncn(Cc2ccc(OC)c(OC3CCCC3)c2)c2nc(C(C)C)nc1-2 [Compound A, 3-(3-cyclopentyloxy-4-methoxybenzyl)-6-ethylamino-8-isopropyl-purine] | 410 | 
2 | COc1ccc(C2CNC(=O)C2)cc1OC1CCCC1 (stereo not shown) [rolipram, reference compound] | 3000 | 
3 | COc1ccc(Cn2cncc3nc(C(C)C)nc2-3)cc1OC1CCCC1 [Compound C, 3-(3-cyclopentyloxy-4-methoxybenzyl)-8-isopropyl-3H-purine] | 800 | insoluble
